Measurements as given in patent publication US10357514B2, “Treatment of cancer using anti-CD19 Chimeric Antigen Receptor” (The Trustees of the University of Pennsylvania, priority 2014, dated 2019).

How the values were obtained:
RL = assay: MTT assay, ibrutinib inhibition of proliferation; assay type: cell-based; settings: Homo sapiens
RL cells = assay: Ibrutinib sensitivity by reduction of bioluminescence (BLI); assay type: cell-based, human; settings: 0.1 nM to 10 μM
Mino = assay: MTT assay, ibrutinib inhibition of proliferation; assay type: cell-based; settings: Homo sapiens
PBMCs = assay: CAR19 lentiviral transduction of ibrutinib-treated normal donor PBMCs; assay type: cell-based, human; settings: PBMCs incubated with 5 μM ibrutinib for 30 minutes
Description: Normal donor PBMCs were obtained using apheresis as described herein, for example in Example 6. […] The cells were then transduced with lentiviral constructs containing CAR19 to generate CART19 T cells using the methods described herein, for example, in Example 4. The number of CART19 T cells generated from ibrutinib-treated PBMCs FACs analysis was performed to determine the number of CART19 T cells generated from ibrutinib-treated PBMCs compared to untreated PBMCs.

Nalm/6 cells = assay: Nalm/6 tumor model in NSG mice; assay type: in vivo
Description: CART19 function was assessed in an in vivo mouse model. Nalm/6 cells (human acute lymphoblastic leukemia cell line) were implanted into NSG mice, and the mice were monitored daily for at least 50 days. […] CART19 was administered on day 7 or day 9, or mice were left untreated (control). […] For example, the cells were stained with anti-human CD19 antibody to determine the percent of human CD19+(Nalm/6) cells in the blood of the tumor-bearing NSG mice.

Jeko-1 = assay: MTT assay, ibrutinib inhibition of proliferation; assay type: cell-based; settings: Homo sapiens
CART19 T cells = settings: 0.1, 0.5, 1 and 5 μM ibrutinib
MCL-RL cells = assay: MCL-RL xenograft model in NSG mice; assay type: in vivo
Description: NOD-SCID-γ chain−/− (NSG) mice originally obtained from Jackson Laboratories were purchased from the Stem Cell and Xenograft Core of the University of Pennsylvania. All experiments were performed on protocols approved by the Institutional Animal Care and Use Committee (IACUC). Schematics of the utilized xenograft models are discussed herein. Cells (MCL cell lines or T cells) were injected in 200 ul of PBS at the indicated concentration into the tail veins of mice. Bioluminescent imaging was performed using a Xenogen IVIS-200 Spectrum camera and analyzed with LivingImage software v. 4.3.1 (Caliper LifeSciencies). Animals were euthanized at the end of the experiment or when they met pre-specified endpoints according to the IACUC protocols.
Schematics such as those shown in FIGS. 20, 55, and 5A were used in this example. […] 1×10^6 cells from RL (MCL-3), JEKO-1 (MCL-4), and NALM6 (MCL-5) cell lines are injected in NSG mice (20 mice for each experiment). […] At Day 7, Day 14, Day 21, and Day 28, the bioluminescence is imaged to monitor tumor size. […] Survival of the mice is also monitored. […] 2×10^6 MCL-RL cells are injected into NSG mice. […] At days 14, 21, 28, and 35 (after injection of MCL-RL cells), the bioluminescence is imaged to monitor tumor size.
Mean bioluminescence, representing tumor growth, was assessed at various timepoints.

MCL = settings: cited from earlier work
JEKO-1 cells = assay: Ibrutinib sensitivity by reduction of bioluminescence (BLI); assay type: cell-based, human; settings: 0.1 nM to 10 μM
[1] = mice; cited from earlier work
[2] = system: luciferase-expressing mantle cell line (RL luc); assay: Lymphoma xenograft model, tumor burden by mean bioluminescence; assay type: in vivo, NSG mice; settings: 200 ng/mouse i.p. three times weekly from Day 85, mice with suboptimal response to CART19
Source text: Tumor size was monitored by measuring the mean bioluminescence of the engrafted tumors over more than 80 days. […] When comparing the tumor burden of mice that received IL-7 treatment to control, before and after IL-7 treatment, tumor reduction in tumor burden was only seen in the mice that had received IL-7 treatment (FIG. 49C).

C=CC(=O)N1CCC[C@@H](n2nc(-c3ccc(Oc4ccccc4)cc3)c3c(N)ncnc32)C1 [ibrutinib, 1-[(3R)-3-[4-Amino-3-(4-phenoxyphenyl)-1H-pyrazolo[3,4-d]pyrimidin-1-yl]piperidin-1-yl]prop-2-en-1-one]
IC50 (RL): 0.01 µM
sensitivity to ibrutinib (reduction of bioluminescence) (RL cells): sensitive
IC50 (Mino): ≤ 10 µM
transduced PBMCs expressing CAR19 (PBMCs): 15%
Nalm/6 cells circulating in peripheral blood (Nalm/6 cells; daily oral gavage from day 7, CART19 on day 7 or 9): does not impair CART19 function in clearing Nalm/6 cells
survival after injection of Nalm/6 cells (Nalm/6 cells; ibrutinib without CART19 T cells): ≤ 30 days
IC50 (Jeko-1): ≤ 10 µM
CD3/CD28-stimulated CART19 cell proliferation (CART19 T cells): did not affect CART19 cell proliferation
median overall survival (MCL-RL cells; 25 mg/kg/day): 81 days
median overall survival (MCL-RL cells; 125 mg/kg/day): 100 days
tumor growth (mean bioluminescence) (MCL-RL cells; ibrutinib alone, 25 and 250 mg/kg/day): dose-related sensitivity
circulating and nodal/organ MCL cells (MCL-RL cells; one week after beginning ibrutinib alone): more circulating MCL cells and fewer nodal/organ MCL cells
tumor burden (bioluminescence) (MCL-RL cells; treatment from Day 7, CART19 2×10^6 cells, ibrutinib 125 mg/kg/day): modestly delayed tumor growth at early time points
patients who do not respond (MCL): about 30%
sensitivity to ibrutinib (reduction of bioluminescence) (JEKO-1 cells): resistant

CO[C@H]1C[C@@H]2CC[C@@H](C)[C@@](O)(O2)C(=O)C(=O)N2CCCC[C@H]2C(=O)O[C@H]([C@H](C)C[C@@H]2CC[C@@H](O)[C@H](OC)C2)CC(=O)[C@H](C)/C=C(\C)[C@@H](O)[C@@H](OC)C(=O)[C@H](C)C[C@H](C)/C=C/C=C/C=C/1C [rapamycin]
lifespan [1]: extended lifespan

B1: IL-7: exogenous recombinant human IL-7 (protein, UniProt P13232 26-177, looked up)
Interleukin-7: DCDIEGKDGKQYESVLMVSIDQLLDSMKEIGSNCLNNEFNFFKRHICDANKEGMFLFRAARKLRQFLKMNSTGDFDLHLLKVSEGTTILLNCTGQVKGRKPAALGEAQPTKSLEENKSLKEQKKLNDLCFLKRLLQEIKTCWNKILMGTKEH
reduction in tumor burden [2]: 1-3 log
